The target of one experiment is T1, human Nav1.8 (Homo sapiens, UniProt Q9Y5Y9).
T1 construct: expressed in transfected cells; host or cells: HEK293 (HEK293-Nav1.8)
T1 sequence (Q9Y5Y9 whole entry): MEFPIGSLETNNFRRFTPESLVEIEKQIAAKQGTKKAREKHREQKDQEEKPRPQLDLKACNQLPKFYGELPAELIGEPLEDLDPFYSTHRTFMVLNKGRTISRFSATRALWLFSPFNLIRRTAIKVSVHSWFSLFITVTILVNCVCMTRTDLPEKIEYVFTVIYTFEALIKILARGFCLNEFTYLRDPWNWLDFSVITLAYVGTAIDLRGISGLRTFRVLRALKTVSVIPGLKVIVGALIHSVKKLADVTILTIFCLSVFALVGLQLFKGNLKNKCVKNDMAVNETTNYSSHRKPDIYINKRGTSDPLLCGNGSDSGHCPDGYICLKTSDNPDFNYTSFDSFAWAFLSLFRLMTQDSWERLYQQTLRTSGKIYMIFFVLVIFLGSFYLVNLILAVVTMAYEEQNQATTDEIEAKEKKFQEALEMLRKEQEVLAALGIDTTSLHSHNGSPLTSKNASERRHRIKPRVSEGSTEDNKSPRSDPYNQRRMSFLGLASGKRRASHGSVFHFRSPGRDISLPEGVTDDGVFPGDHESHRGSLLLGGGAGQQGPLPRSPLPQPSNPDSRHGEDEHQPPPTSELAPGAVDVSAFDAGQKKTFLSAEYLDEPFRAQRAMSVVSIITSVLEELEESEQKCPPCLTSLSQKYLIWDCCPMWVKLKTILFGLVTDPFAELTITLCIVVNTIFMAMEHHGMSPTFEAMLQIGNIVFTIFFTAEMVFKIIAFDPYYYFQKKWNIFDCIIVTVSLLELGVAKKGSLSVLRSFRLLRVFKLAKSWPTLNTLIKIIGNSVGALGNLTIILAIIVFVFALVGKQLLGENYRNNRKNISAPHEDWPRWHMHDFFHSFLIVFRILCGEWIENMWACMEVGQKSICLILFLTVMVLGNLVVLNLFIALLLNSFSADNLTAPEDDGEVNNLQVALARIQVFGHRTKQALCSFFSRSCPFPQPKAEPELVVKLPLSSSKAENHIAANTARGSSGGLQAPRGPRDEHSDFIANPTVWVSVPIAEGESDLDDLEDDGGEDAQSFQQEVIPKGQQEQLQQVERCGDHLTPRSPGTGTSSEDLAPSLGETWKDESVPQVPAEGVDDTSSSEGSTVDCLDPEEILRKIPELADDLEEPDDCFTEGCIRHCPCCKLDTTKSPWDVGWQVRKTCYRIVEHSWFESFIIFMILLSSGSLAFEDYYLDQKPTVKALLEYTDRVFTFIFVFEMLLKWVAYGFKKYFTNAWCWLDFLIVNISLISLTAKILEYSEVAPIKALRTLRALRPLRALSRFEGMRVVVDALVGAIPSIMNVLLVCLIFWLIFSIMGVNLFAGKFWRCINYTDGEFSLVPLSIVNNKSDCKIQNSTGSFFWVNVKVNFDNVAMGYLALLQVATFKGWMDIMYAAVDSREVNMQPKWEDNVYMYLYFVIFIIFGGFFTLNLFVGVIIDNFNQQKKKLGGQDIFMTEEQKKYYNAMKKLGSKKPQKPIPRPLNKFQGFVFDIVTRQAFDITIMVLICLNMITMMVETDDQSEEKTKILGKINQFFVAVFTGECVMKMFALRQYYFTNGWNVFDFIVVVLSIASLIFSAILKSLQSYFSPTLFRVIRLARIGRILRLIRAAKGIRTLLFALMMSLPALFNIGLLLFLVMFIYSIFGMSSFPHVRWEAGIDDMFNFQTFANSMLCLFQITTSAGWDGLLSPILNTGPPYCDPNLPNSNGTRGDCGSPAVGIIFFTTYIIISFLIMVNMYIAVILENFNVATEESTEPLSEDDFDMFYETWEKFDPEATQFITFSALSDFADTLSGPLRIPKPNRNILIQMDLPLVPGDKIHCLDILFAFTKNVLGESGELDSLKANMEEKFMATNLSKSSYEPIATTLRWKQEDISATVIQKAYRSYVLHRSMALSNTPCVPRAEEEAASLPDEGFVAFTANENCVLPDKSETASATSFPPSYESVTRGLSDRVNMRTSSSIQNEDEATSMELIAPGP
T1 sequence (Q07699 19-218 partner): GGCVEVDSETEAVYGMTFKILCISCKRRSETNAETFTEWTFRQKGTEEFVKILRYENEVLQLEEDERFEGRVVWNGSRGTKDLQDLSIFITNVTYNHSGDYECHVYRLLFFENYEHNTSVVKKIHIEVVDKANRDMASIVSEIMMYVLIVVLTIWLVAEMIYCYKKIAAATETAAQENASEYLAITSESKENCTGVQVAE
In words: Nav1.8 sodium channels assay, QPatch 48 HTX electrophysiology in HEK293-Nav1.8 cells. The following applies: Table 1; HEK293-Nav1.8, QPatch 48 HTX, half inactivation state voltage protocol (V1/2); single run or average of two or more runs; read-out: Nav1.8 pIC50 (converted). It counts as cell-based. Here is the method: Human embryonic kidney […] cells (HEK293) expressing human Nav1.8, human Navβ1 and human TREK1 (HEK293-Nav1.8) were grown at 37° C., 5% CO2 in 150 cm^2 flasks. HEK293-Nav1.8 were passaged every 2-3 days when confluency reached 80-90% in to T175 cell culture flasks.
Pharmacological assessment of the invention was performed using HEK293-Nav1.8 in combination with an assay developed on the QPatch 48 HTX electrophysiological system. HEK293-Nav1.8 were prepared on the day of use by removing culture media, washing in DPBS, adding Accutase (2 ml to cover the surface, aspirate 1 ml then 1.5 min at 37° C.) followed by addition of CHO-SFM II to stop the enzyme digestion and in order to obtain a suspension of 3×10^6 cell/mL.
The invention was prepared in an extracellular solution of the following composition (in mM) NaCl 145, KCl 4, CaCl2 2, MgCl 2, HEPES 1, Glucose 10, pH 7.4 with NaOH Osmolality 300 mOsM/L. The intracellular solution was used of the following composition (in mM) CsF 115, CsCl 20, NaCl 5, EGTA 10, HEPES 10, Sucrose 20, pH 7.2 with CsOH Osmolality 310 mOsm/L.
Utilizing the voltage-clamp mode in the QPatch 48 HTX system a half inactivation state voltage protocol (V1/2) was used to determine pharmacological activity of the invention at Nav1.8 ion channels. A V1/2 protocol was utilized with the following voltage steps: a holding voltage of −100 mV was established followed by a 20 ms voltage step to 0 mV (P1), followed by an inactivating voltage step at −46 mV for 8 seconds, followed by a step to −100 mV for 20 ms, before a 20 ms step to 0 mV (P2) before returning to the holding voltage of −100 mV. This voltage protocol was repeated at a frequency of 0.07 Hz., current magnitude was quantified at the P2 step throughout the recording. Inhibition of the measured current amplitude with the invention was analyzed by fitting a 6-8 point dose-response curve allowing determination of the fifty percent inhibition concentration (IC50). Within the QPatch HTX software, P2 current was normalized according to measurements made at baseline after compound and after positive reference compound and fit to the following equation: […]
To assess current run-down over the course of the experiment vehicle-only wells were utilized and the normalized current with vehicle-only (n.IVEH) was determined. To correct the compound response for run-down, the currents were correct according the following formula: […]
Compounds of the invention are tested for activity against Nav1. 8 sodium channels in the above assay.
(In general: Patch clamp records ionic current or voltage across a cell membrane.)
Consider `Cc1cc(F)ccc1N1CN(c2c[nH]c(=O)c(C)c2)C(=O)c2ccc(C(F)(F)F)cc21` [drawing 271, 1-(4-fluoro-2-methylphenyl)-3-(5-methyl-6-oxo-1,6-dihydropyridin-3-yl)-7-(trifluoromethyl)-2,3-dihydroquinazolin-4(1H)-one], for which the IC50 is 631 nM.
Turning to `Cc1cc(F)ccc1N1CN(c2ccc(=O)[nH]c2C)C(=O)c2cc(C(F)(F)F)ccc21` [drawing 305, 1-(4-fluoro-2-methylphenyl)-3-(2-methyl-6-oxo-1,6-dihydropyridine-3-yl)-6-(trifluoromethyl)-2,3-dihydroquinazolin-4(1H)-one], the IC50 is 12.6 nM.
For `O=C1c2ccc(C(F)(F)F)cc2N(Cc2ccc(F)cc2)CN1c1ccc(=O)[nH]c1` [drawing 272, 1-(4-fluorobenzyl)-3-(6-oxo-1,6-dihydropyridin-3-yl)-7-(trifluoromethyl)-2,3-dihydroquinazolin-4(1H)-one], the IC50 is 7940 nM.

The experiment is the same for the next values; noted with them: at least one set of experimental runs; read-out: average pIC50 value against Nav1.8 (converted).
As to `Cc1c[nH]c(=O)cc1N1CN(c2ccc(F)cc2C)c2cc(C(F)(F)F)ccc2C1=O` [Example 54, 1-(4-fluoro-2-methylphenyl)-3-(5-methyl-2-oxo-1,2-dihydropyridin-4-yl)-7-(trifluoromethyl)-2,3-dihydroquinazolin-4(1H)-one], the IC50 was 794 to 7940 nM.
As for `Cc1cc(F)ccc1N1CN(c2ccc(=O)[nH]c2C)C(=O)c2ccc(OC(F)(F)F)cc21` [Example 56, 1-(4-fluoro-2-methylphenyl)-3-(2-methyl-6-oxo-1,6-dihydropyridin-3-yl)-7-(trifluoromethoxy)-2,3-dihydroquinazolin-4(1H)-one], the IC50 was ≤ 100 nM.
With `CCc1cc(F)ccc1N1CN(c2ccc(=O)[nH]c2C)C(=O)c2cc(C(F)(F)F)cnc21` [Example 176, 1-(2-ethyl-4-fluorophenyl)-3-(2-methyl-6-oxo-1,6-dihydropyridin-3-yl)-6-(trifluoromethyl)-2,3-dihydropyrido[2,3-d]pyrimidin-4(1H)-one], the IC50 is ≤ 100 nM.
On the same count and under the same terms, the result for `Cc1cc(F)ccc1N1CN(c2ccc(=O)[nH]c2)C(=O)c2cc(C(F)(F)F)ccc21` [Example 215, 1-(4-Fluoro-2-methylphenyl)-3-(6-oxo-1,6-dihydropyridin-3-yl)-6-(trifluoromethyl)-2,3-dihydroquinazolin-4(1H)-one] reads 126 to 631 nM; that for `Cc1cc(=O)[nH]c(C)c1N1CN(c2ccc(F)cc2C(C)C)c2ccc(Cl)cc2C1=O` [Example 82, 6-chloro-3-(2,4-dimethyl-6-oxo-1,6-dihydropyridin-3-yl)-1-(4-fluoro-2-isopropylphenyl)-2,3-dihydroquinazolin-4(1H)-one], 126 to 631 nM; that for `Cc1cc(OC(F)(F)F)ccc1N1CN(c2ccc(=O)[nH]c2C)C(=O)c2cc(Cl)c(C#N)cc21` [Example 172, 6-chloro-1-(2-methyl-4-(trifluoromethoxy)phenyl)-3-(2-methyl-6-oxo-1,6-dihydropyridin-3-yl)-4-oxo-1,2,3,4-tetra-hydroquinazoline-7-carbonitrile], ≤ 100 nM.
The same measure, in the same setting: next, `Cc1cc(F)ccc1N1CN(c2ccc(=O)[nH]c2C)C(=O)c2cc(Cl)c(Cl)nc21` [Example 73, 6,7-dichloro-1-(4-fluoro-2-methylphenyl)-3-(2-methyl-6-oxo-1,6-dihydropyridin-3-yl)-2,3-dihydropyrido[2,3-d]pyrimidin-4(1H)-one]: ≤ 100 nM.
On the same count and under the same terms, the result for `Cc1[nH]c(=O)ccc1N1CN([C@H]2CCOC[C@H]2C)c2cc(C(F)(F)F)ccc2C1=O` [Example 281, 3-(2-Methyl-6-oxo-1,6-dihydropyridin-3-yl)-1-((3S,4S)-3-methyltetrahydro-2H-pyran-4-yl)-7-(trifluoromethyl)-2,3-dihydroquinazolin-4(1H)-one] reads 126 to 631 nM; that for `Cc1cc(F)ccc1N1CN(C2CCS(=O)(=O)CC2)C(=O)c2ccc(C(F)(F)F)cc21` [Example 17, 3-(1,1-dioxidotetrahydro-2H-thiopyran-4-yl)-1-(4-fluoro-2-methylphenyl)-7-(trifluoromethyl)-2,3-dihydroquinazolin-4(1H)-one], 794 to 7940 nM.
As for `Cc1cc(F)ccc1N1CN(c2ccc(=O)[nH]c2Br)C(=O)c2cc(C(F)(F)F)ccc21` [Example 164, 3-(2-bromo-6-oxo-1,6-dihydropyridin-3-yl)-1-(4-fluoro-2-methylphenyl)-6-(trifluoromethyl)-2,3-dihydroquinazolin-4(1H)-one], the IC50 is 126 to 631 nM.
For the compound `Cc1cc(F)ccc1N1CN(c2ccc(=O)[nH]c2C)C(=S)c2ccc(C(F)(F)F)cc21` [Example 214, 5-(1-(4-fluoro-2-methylphenyl)-4-thioxo-7-(trifluoromethyl)-1,4-dihydroquinazolin-3(2H)-yl)-6-methylpyridin-2(1H)-one], the IC50 was ≤ 100 nM.
On the same count and under the same terms, next, `Cc1cc(N2CN(c3ccc(F)cc3C)c3ccc(C(F)(F)F)cc3C2=O)c[n+]([O-])c1` [Example 255, 3-(1-(4-fluoro-2-methylphenyl)-4-oxo-6-(trifluoromethyl)-1,4-dihydroquinazolin-3(2H)-yl)-5-methylpyridine 1-oxide]: 794 to 7940 nM.
Regarding `Cc1[nH]c(=O)ccc1N1CN(c2ccc(F)c(C#N)c2C)c2ccc(C(F)(F)F)cc2C1=O` [Example 140, 6-fluoro-2-methyl-3-(3-(2-methyl-6-oxo-1,6-dihydropyridin-3-yl)-4-oxo-6-(trifluoromethyl)-3,4-dihydroquinazolin-1(2H)-yl)benzonitrile], the IC50 is 126 to 631 nM.
Still for that read-out and setting: the result for `Cc1cc(F)ccc1N1CN(c2ccc(=O)[nH]c2C)C(=O)c2ccc(N(C)C)cc21` [Example 65, 7-(dimethylamino)-1-(4-fluoro-2-methylphenyl)-3-(2-methyl-6-oxo-1,6-dihydropyridin-3-yl)-2,3-dihydroquinazolin-4(1H)-one] reads ≤ 100 nM.
For `Cc1cc(F)ccc1N1CN(c2ccc(=O)[nH]c2NCCO)C(=O)c2ccc(C(F)(F)F)cc21` [Example 199, 1-(4-fluoro-2-methylphenyl)-3-(2-((2-hydroxy-ethyl)amino)-6-oxo-1,6-dihydropyridin-3-yl)-7-(trifluoromethyl)-2,3-dihydroquinazolin-4(1H)-one], the IC50 is 126 to 631 nM.
Turning to `Cc1cc(OC(F)(F)F)ccc1N1CN(c2ccc(=O)[nH]c2C)C(=O)c2cc(C(F)(F)F)cnc21` [Example 298, 1-(2-methyl-4-(trifluoromethoxy)phenyl)-3-(2-methyl-6-oxo-1,6-dihydropyridin-3-yl)-6-(trifluoromethyl)-2,3-dihydropyrido[2,3-d]pyrimidin-4(1H)-one], the IC50 was ≤ 100 nM.
Still for that read-out and setting: the result for `Cc1cc(C(F)(F)CO)ccc1N1CN(c2ccc(=O)[nH]c2C)C(=O)c2ccc(C(F)(F)F)cc21` [Example 202, 1-(4-(1,1-difluoro-2-hydroxyethyl)-2-methylphenyl)-3-(2-methyl-6-oxo-1,6-dihydropyridin-3-yl)-7-(trifluoromethyl)-2,3-dihydroquinazolin-4(1H)-one] reads 794 to 7940 nM.
On the same count and under the same terms, next, `COc1ccc(N2CN(c3ccc(F)cc3Br)c3ccc(C(F)(F)F)cc3C2=O)c(C)n1` [Example 9, 1-(2-bromo-4-fluorophenyl)-3-(6-methoxy-2-methylpyridin-3-yl)-6-(trifluoromethyl)-2,3-dihydroquinazolin-4(1H)-one]: 794 to 7940 nM.
The same measure, in the same setting: the result for `Cc1cc(OC(F)(F)F)ccc1N1CN(c2ccc(=O)[nH]c2C)C(=O)c2cc(Cl)c(C#N)nc21` [Example 170, 6-chloro-1-(2-methyl-4-(trifluoromethoxy)phenyl)-3-(2-methyl-6-oxo-1,6-dihydropyridin-3-yl)-4-oxo-1,2,3,4-tetra-hydropyrido[2,3-d]pyrimidine-7-carbonitrile] reads ≤ 100 nM; that for `Cc1cc(F)ccc1N1CN(c2ccc(=O)[nH]c2C)C(=O)c2cc(C#N)c(Cl)cc21` [Example 233, 7-chloro-1-(4-fluoro-2-methylphenyl)-3-(2-methyl-6-oxo-1,6-dihydropyridin-3-yl)-4-oxo-1,2,3,4-tetra-hydroquinazoline-6-carbonitrile], ≤ 100 nM; that for `Cc1cc(F)ccc1N1CN(C2CCC(=O)NC2=O)C(=O)c2cc(C(F)(F)F)ccc21` (stereo not drawn) [Example 34, 3-(1-(4-fluoro-2-methylphenyl)-4-oxo-6-(trifluoromethyl)-1,4-dihydroquinazolin-3(2H)-yl)piperidine-2,6-dione], 126 to 631 nM.

The values are drawn from patent US20230103791A1 (GLAXOSMITHKLINE INTELLECTUAL PROPERTY DEVELOPMENT LIMITED, priority 2019, published 2023).
